Holding throughout (assay type): cell-based
In assay [1] the target is T1, Sppl2a CD74 (Mus musculus, UniProt Q9JJF9).
T1 construct: Mouse whole blood Balb/c mice (sodium citrate) was ordered by Bioreclamation LLC; tissue Bioreclamation LLC
T1 sequence (Q9JJF9 26-523): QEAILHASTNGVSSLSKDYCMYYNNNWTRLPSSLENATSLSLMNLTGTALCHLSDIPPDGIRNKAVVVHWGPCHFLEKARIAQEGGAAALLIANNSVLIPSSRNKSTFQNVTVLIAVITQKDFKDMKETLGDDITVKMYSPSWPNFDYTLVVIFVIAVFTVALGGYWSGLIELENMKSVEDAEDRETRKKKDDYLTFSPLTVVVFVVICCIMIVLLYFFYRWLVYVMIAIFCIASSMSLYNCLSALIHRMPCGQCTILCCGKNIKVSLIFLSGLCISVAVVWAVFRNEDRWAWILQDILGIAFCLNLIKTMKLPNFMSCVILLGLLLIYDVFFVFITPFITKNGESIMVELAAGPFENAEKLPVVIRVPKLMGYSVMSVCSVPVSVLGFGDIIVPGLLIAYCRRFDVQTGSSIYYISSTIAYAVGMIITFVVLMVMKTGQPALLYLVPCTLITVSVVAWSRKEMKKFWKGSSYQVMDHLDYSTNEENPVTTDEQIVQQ
The assay can be described thus: CD74/p8 mouse whole blood assay, flow cytometry format. The settings on record: Balb/c mouse whole blood, 5 h, CD74 signal on gated live B cells. The procedure: CD74/p8 Mouse Whole Blood Assay: Flow Cytometry Format
Mouse whole blood Balb/c mice (sodium citrate) was ordered by Bioreclamation LLC; USA. The blood was used the next day upon receipt (stored at 4° C.). 100 μL blood were transferred in 96 well format plate, where compounds, an 11 point dilutions down from 30 μM, to be tested were previously deposited. The plate was incubated for 5 h in the incubator at 37° C., 5% CO2 under continuous motion. After the incubation the blood was diluted with RBC Lysis Buffer (Amined; Cat. Nr 3-13F00-H or BD; Cat. Nr 555899). The solution was mixed by pipetting and incubated 10 min in the 37° C. incubator. The white blood cells were sedimented for 3 min at 2000 rpm. After removing the supernatant the cell pellet was resuspended and washed twice in RCB Buffer and kept≈ 5 min at room temperature, followed by a centrifugation for 2 min at 2000 rpm. The cell pellet was then resuspend in D-PBS and centrifuged twice. Finally, the cells were taken up in of D-PBS/0.5% inactivated fetal bovine serum/2 mM EDTA. The cell suspension was treated with Live/Dead fixable stain (Life Technologies, >470 nm version), B cells were identified by surface staining with an anti-B220 antibody coupled to APC fluorofor. After staining, the cells were extensively washed with PBS. The cells were permeabilized and fixed in FACS lysing buffer; (BD; #349202, dil 1:10 in water) and labelled with an anti CD74, FITC labelled antibody, washed once more with diluted FACS lysing buffer and spin down. The cell pellet was washed with D-PBS/0.5% inactivated fetal bovine serum/2 mM EDTA and PBS prior to the analysis in a flow cytometer. The compound concentrations were plotted against the intensity (medium fluorescence intensity) of the CD74 signal on the gated life B cell and IC50 were determined by fitting data for a 11 concentrations dose response.
Background: Flow cytometry measures light scatter and fluorescence of single cells or particles in a stream.

The target in assay [2] is T2, human SPPL2a (Homo sapiens, UniProt Q8TCT8).
T2 sequence (Q8TCT8 26-520): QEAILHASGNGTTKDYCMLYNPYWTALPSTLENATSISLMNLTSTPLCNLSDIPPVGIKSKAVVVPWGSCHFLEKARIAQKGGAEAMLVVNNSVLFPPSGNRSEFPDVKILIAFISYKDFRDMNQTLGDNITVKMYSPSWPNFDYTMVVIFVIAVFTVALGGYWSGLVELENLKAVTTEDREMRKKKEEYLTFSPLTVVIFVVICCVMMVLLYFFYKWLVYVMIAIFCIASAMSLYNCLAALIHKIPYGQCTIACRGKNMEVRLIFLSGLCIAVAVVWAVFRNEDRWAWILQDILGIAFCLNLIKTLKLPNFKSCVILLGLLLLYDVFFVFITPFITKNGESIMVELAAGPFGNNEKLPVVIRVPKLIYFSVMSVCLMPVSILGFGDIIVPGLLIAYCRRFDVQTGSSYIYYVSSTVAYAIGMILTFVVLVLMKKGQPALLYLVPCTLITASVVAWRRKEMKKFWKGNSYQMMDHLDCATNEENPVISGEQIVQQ
The assay can be described thus: Sppl2a TL (translocation) imaging assay in U-2 OS cells. Further details: expressed in transfected cells. The settings on record: U-2 OS cells expressing human SPPL2a and EGFP-TNFα(aa1-76) NTF substrate; 24 h. In outline:
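U-2 OS cells stably expressing human SPPL2a plus doxycycline-induced EGFP-TNFα(aa1-76) NTF, treated 24 h at 37 °C with inhibitor (100 μM–1 nM, 11 points, 0.9% DMSO, 5 μg/mL doxycycline). Imaging of nuclear-minus-cytoplasmic EGFP intensity; % inhibition versus 0.5 μM LY-411,575 and DMSO, IC50 by nonlinear regression; CC50 from cell count.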

Assay [3] has as its target T2, human SPPL2a. The assay can be described thus: Sppl2a RGA (reporter gene assay) in HEK293 cells. Further details: expressed in transfected cells; host or cells: HEK293 (transient). The conditions noted are these: NT-TNF-VP16-Gal4 substrate, Gal4-luciferase reporter, 24 h. In outline:
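Cleavage of a membrane-bound TNF N-terminal–VP16-Gal4 substrate drives Gal4-luciferase expression in transiently transfected HEK293 cells also expressing human SPPL2a. Compounds incubated 24 h, 37 °C, 5% CO2; luminescence read, normalized and plotted against concentration for IC50.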
For orientation: In a reporter assay the amount or activity of a reporter protein is the signal.

For the compound `CCNC(=O)c1nc(C)c(C(=O)NC[C@@H](CC)C(=O)N[C@@H]2C(=O)N3CCCN3Cc3ccccc32)s1` [Example 10, N^2-Ethyl-4-methyl-N^5-((R)-2-(((S)-11-oxo-2,3,10,11-tetrahydro-1H,5H-benzo[d]pyrazolo [1,2-a][1,2]diazepin-10-yl)carbamoyl)butyl) thiazole-2,5-dicarboxamide], the IC50 in assay [1] worked out at 289 nM; in assay [2], 4 nM; in assay [3], 5 nM.
With `CNC(=O)c1nc(C)c(C(=O)NC[C@H](C(=O)N[C@@H]2C(=O)N3CCCN3Cc3ccccc32)C(F)(F)F)s1` [Example 11, N^2,4-Dimethyl-N^5-((R)-3,3,3-trifluoro-2-(((S)-11-oxo-2,3,10,11-tetrahydro-1H,5H-benzo[d]pyrazolo [1,2-a][1,2]diazepin-10-yl)carbamoyl)pro-pyl)thiazole-2,5-dicarboxamide], the results for the IC50 in assay [1], in assay [2] and in assay [3] were 95 nM, 4 nM and 3 nM, respectively.
For `CCNC(=O)c1nc(C)c(C(=O)NC[C@H](C(=O)N[C@@H]2C(=O)N3CCCN3Cc3ccccc32)C2CC2)s1` [Example 12, N^5-((R)-2-Cyclopropyl-3-oxo-3-(((S)-11-oxo-2,3,10,11-tetrahydro-1H,5H-benzo[d]pyrazolo [1,2-a][1,2]diazepin-10-yl)amino)propyl)-N^2-ethyl-4-methylthiazole-2,5-dicarboxamide] the same measures were 280 nM, 5 nM and 4 nM.
On to `CC[C@H](CNC(=O)c1sc(C(=O)NC)nc1C)C(=O)N[C@@H]1C(=O)N2CCCN2Cc2ccccc21` [Example 13, N^2,4-Dimethyl-N^5-((R)-2-(((S)-11-oxo-2,3,10,11-tetrahydro-1H,5H-benzo[d]pyrazolo [1,2-a][1,2]diazepin-10-yl)carbamoyl)butyl) thiazole-2,5-dicarboxamide], for which the IC50 came out at 161 nM in assay [1], 6 nM in assay [2] and 8 nM in assay [3].
The like results for `Cc1nc(C(=O)NC(C)C)sc1C(=O)NC[C@H](C(=O)N[C@@H]1C(=O)N2CCCN2Cc2ccccc21)C(F)(F)F` [Example 14, N^2-Isopropyl-4-methyl-N^5-((R)-3,3,3-trifluoro-2-(((S)-11-oxo-2,3,10,11-tetrahydro-1H,5H-benzo[d]pyrazolo [1,2-a][1,2]diazepin-10-yl)carbamoyl)pro-pyl)thiazole-2,5-dicarboxamide] were, in that order, 269 nM, 7 nM and 3 nM.
For `CCNC(=O)c1nc(C)c(C(=O)NC[C@@H](C)C(=O)N[C@@H]2C(=O)N3CCCN3Cc3ccccc32)s1` [Example 16, N^2-Ethyl-4-methyl-N^5-((R)-2-methyl-3-oxo-3-(((S)-11-oxo-2,3,10,11-tetrahydro-1H,5H-benzo[d]pyrazolo [1,2-a][1,2]diazepin-10-yl)amino)propyl) thiazole-2,5-dicarboxamide] the same measures were 659 nM, 11 nM and 8 nM.
For `CC[C@H](CNC(=O)c1c(C)noc1C(F)(F)F)C(=O)N[C@@H]1C(=O)N2CCCN2Cc2ccccc21` [Example 17, 3-Methyl-N-((R)-2-(((5)-11-oxo-2,3,10,11-tetrahydro-1H,5H-benzo[d]pyrazolo [1,2-a][1,2]diazepin-10-yl)carbamoyl)butyl)-5-(trifluoromethyl) isoxazole-4-carboxamide] the same measures were 2350 nM, 11 nM and 5 nM.
For `CC[C@H](CNC(=O)c1sc(C(=O)NC(C)C)nc1C)C(=O)N[C@@H]1C(=O)N2CCCN2Cc2ccccc21` [Example 19, N^2-Isopropyl-4-methyl-N^5-((R)-2-(((S)-11-oxo-2,3,10,11-tetrahydro-1H,5H-benzo[d]pyrazolo [1,2-a][1,2]diazepin-10-yl)carbamoyl)butyl) thiazole-2,5-dicarboxamide], the IC50 in assay [1] was found to be 819 nM; in assay [2], 12 nM; in assay [3], 6 nM.
For `Cc1nc(C(=O)NCC(F)F)sc1C(=O)NC[C@@H](C)C(=O)N[C@@H]1C(=O)N2CCCN2Cc2ccccc21` [Example 21, N^2-(2,2-Difluoroethyl)-4-methyl-N^5-((R)-2-methyl-3-oxo-3-(((S)-11-oxo-2,3,10,11-tetrahydro-1H,5H-benzo[d]pyrazolo [1,2-a][1,2]diazepin-10-yl)amino)propyl) thiazole-2,5-dicarboxamide] the same measures were 5940 nM, 13 nM and 7 nM.
Consider `CC(C)NC(=O)c1nc(Cl)c(C(=O)NC[C@@H](C)C(=O)N[C@@H]2C(=O)N3CCCN3Cc3ccccc32)s1` [Example 22, 4-Chloro-N^2-isopropyl-N^5-((R)-2-methyl-3-oxo-3-(((S)-11-oxo-2,3,10,11-tetrahydro-1H,5H-benzo[d]pyrazolo [1,2-a][1,2]diazepin-10-yl)amino)propyl) thiazole-2,5-dicarboxamide], for which the IC50 in assay [1] was 3000 nM; in assay [2], 14 nM; in assay [3] it was 12 nM.
The like results for `Cc1cc(-c2nc(C)c(C(=O)NC[C@@H](C)C(=O)N[C@@H]3C(=O)N4CCCN4Cc4ccccc43)s2)on1` [Example 23, 4-Methyl-N-((R)-2-methyl-3-oxo-3-(((S)-11-oxo-2,3,10,11-tetrahydro-1H,5H-benzo[d]pyrazolo [1,2-a][1,2]diazepin-10-yl)amino)propyl)-2-(3-methylisoxazol-5-yl)thiazole-5-carboxamide] were, in that order, 992 nM, 16 nM and 21 nM.
For `Cc1nc(C(=O)NC(C)C)sc1C(=O)NC[C@@H](C)C(=O)N[C@@H]1C(=O)N2CCCN2Cc2ccccc21` [Example 24, N^2-Isopropyl-4-methyl-N^5-((R)-2-methyl-3-oxo-3-(((S)-11-oxo-2,3,10,11-tetrahydro-1H,5H-benzo[d]pyrazolo [1,2-a][1,2]diazepin-10-yl)amino)propyl) thiazole-2,5-dicarboxamide] the same measures were 1660 nM, 21 nM and 33 nM.
Turning to `CC[C@H](CNC(=O)c1onc(C)c1C)C(=O)N[C@@H]1C(=O)N2CCCN2Cc2ccccc21` [Example 25, 3,4-Dimethyl-N-((R)-2-(((S)-11-oxo-2,3,10,11-tetrahydro-1H,5H-benzo[d]pyrazolo [1,2-a][1,2]diazepin-10-yl)carbamoyl)butyl) isoxazole-5-carboxamide], the IC50 in assay [1] was determined as 420 nM; in assay [2] it was 24 nM; in assay [3], 9 nM.

Usually IC50 stands for the concentration that gives 50% inhibition. Read a high IC50 as lower potency.

These data come from patent US20230365571A1, “COMPOUNDS AND COMPOSITIONS AS Sppl2a INHIBITORS” (Novartis AG, priority 2020, published 2023).
